According to patent US20130230459A1, “RADIOLABELLED mGluR2 PET LIGANDS” (Janssen Pharmaceuticals, Inc., priority 2010, published 2013):
Values joined by “and” are separate entries in the source; they are usually repeats but may differ in a detail not shown here. Identical values can stand only once.

Assay: Biodistribution studies of 11C tracers
Format: in vivo, Wistar rats
Settings: for SUV Blood / SUV Cerebellum / SUV Cerebrum total / SUV Cortex / SUV Hippocampus / SUV Striatum: normalized for body weight
Method: Biodistribution studies were carried out in healthy male Wistar rats (body weight 200-450 g) at 2 min, 30 min and 60 min post injection (p.i.) (n=3/time point). Rats were injected with about 11 MBq (2 min, 30 min analysis) or 22 MBq (60 min analysis) of the tracer via tail vein under anesthesia (2.5% isoflurane in O2 at 1 L/min flow rate) and sacrificed by decapitation at above specified time points. Blood and major organs were collected in tared tubes and weighed. The radioactivity in blood, organs and other body parts was measured using an automated gamma counter. The distribution of radioactivity in different parts of the body at different time points p.i. of the tracer was calculated and expressed as percentage of injected dose (% ID), and as percentage of injected dose per gram tissue (% ID/g) for the selected organs. % ID is calculated as cpm in organ/total cpm recovered. For calculation of total radioactivity in blood, blood mass was assumed to be 7% of the body mass.

## [11CH3]Oc1c(F)ccc(F)c1C1CCN(c2ccn3c(CC4CC4)nnc3c2C(F)(F)F)CC1 [[^11C]B-3, 3-(cyclopropylmethyl)-7-[4-[3,6-difluoro-2-[^11C]methoxyphenyl]-1-piperidinyl]-8-(trifluoromethyl)-1,2,4-triazolo[4,3-a]pyridine]
2 min p.i.
  % ID Blood: 8.5 % ID and 8.5 ± 1.9 % ID
  % ID Carcass: 36.0 ± 0.7 % ID
  % ID Cerebellum: 0.17 % ID and 0.165 ± 0.009 % ID
  % ID Cerebrum total: 0.54 % ID and 0.536 ± 0.048 % ID
  % ID Cortex: 0.062 ± 0.009 % ID
  % ID Heart: 4.8 ± 0.4 % ID
  % ID Hippocampus: 0.017 ± 0.002 % ID
  % ID Intestines: 9.4 ± 0.8 % ID
  % ID Kidneys: 8.8 ± 0.7 % ID
  % ID Liver: 28.7 ± 2.1 % ID
  % ID Lungs: 3.7 ± 1.7 % ID
  % ID Rest of cerebrum: 0.457 ± 0.050 % ID
  % ID Spleen + Pancreas: 2.0 ± 0.1 % ID
  % ID Stomach: 1.5 ± 0.4 % ID
  % ID Striatum: 0.028 ± 0.002 % ID
  % ID Urine: 0.1 ± 0.0 % ID
  Total brain uptake: 0.75 % ID and 0.75 ± 0.0 % ID
  SUV Blood: 1.20 ± 0.03
  SUV Cerebellum: 1.54 and 1.54 ± 0.01
  SUV Cerebrum total: 1.09 ± 0.01
  SUV Cortex: 1.03 ± 0.00
  SUV Hippocampus: 0.85 ± 0.01
  SUV Striatum: 0.99 ± 0.00
30 min p.i.
  % ID Blood: 2.6 ± 0.7 % ID
  % ID Carcass: 46.7 ± 7.8 % ID
  % ID Cerebellum: 0.142 ± 0.042 % ID
  % ID Cerebrum total: 0.489 ± 0.121 % ID
  % ID Cortex: 0.071 ± 0.031 % ID
  % ID Heart: 1.7 ± 0.7 % ID
  % ID Hippocampus: 0.019 ± 0.006 % ID
  % ID Intestines: 8.9 ± 1.4 % ID
  % ID Kidneys: 3.4 ± 1.0 % ID
  % ID Liver: 31.3 ± 9.7 % ID
  % ID Lungs: 0.5 ± 0.2 % ID
  % ID Rest of cerebrum: 0.373 ± 0.084 % ID
  % ID Spleen + Pancreas: 1.1 ± 0.3 % ID
  % ID Stomach: 3.8 ± 1.4 % ID
  % ID Striatum: 0.027 ± 0.007 % ID
  % ID Urine: 0.5 ± 0.1 % ID
  Total brain uptake: 0.64 ± 0.2 % ID
  SUV Blood: 0.40 ± 0.01
  SUV Cerebellum: 1.54 and 1.54 ± 0.04
  SUV Cerebrum total: 1.11 ± 0.03
  SUV Cortex: 1.00 ± 0.03
  SUV Hippocampus: 0.84 ± 0.02
  SUV Striatum: 1.15 ± 0.04
60 min p.i.
  % ID Blood: 2.9 % ID and 2.9 ± 0.4 % ID
  % ID Carcass: 44.2 ± 10.9 % ID
  % ID Cerebellum: 0.142 ± 0.050 % ID
  % ID Cerebrum total: 0.499 ± 0.168 % ID
  % ID Cortex: 0.069 ± 0.027 % ID
  % ID Heart: 1.1 ± 0.6 % ID
  % ID Hippocampus: 0.023 ± 0.011 % ID
  % ID Intestines: 14.8 ± 1.7 % ID
  % ID Kidneys: 2.4 ± 0.9 % ID
  % ID Liver: 23.6 ± 12.9 % ID
  % ID Lungs: 0.7 ± 0.3 % ID
  % ID Rest of cerebrum: 0.371 ± 0.119 % ID
  % ID Spleen + Pancreas: 0.9 ± 0.3 % ID
  % ID Stomach: 9.6 ± 2.2 % ID
  % ID Striatum: 0.036 ± 0.014 % ID
  % ID Urine: 0.4 ± 0.1 % ID
  % ID present in liver and intestines: 38.4 % ID
  % ID present in the urinary system: 2.8 % ID
  Total brain uptake: 0.66 ± 0.2 % ID
  SUV Blood: 0.40 ± 0.01
  SUV Cerebellum: 1.84 ± 0.07
  SUV Cerebrum total: 1.38 ± 0.05
  SUV Cortex: 1.13 ± 0.04
  SUV Hippocampus: 1.11 ± 0.04
  SUV Striatum: 1.76 ± 0.07
At all time points examined
  % ID present in the carcass: ~42 % ID
